Data taken from patent US4725683A, “Fluorophenoxyphenoxypropionates and derivatives thereof” (The Dow Chemical Company, priority 1985, dated 1988).

Assays:
Format in all cases: in vivo
Crabgrass = assay: Preemergent activity
Method: (§1) In a representative operation, 2-[4-(2-fluoro-4-trifluoromethylphenoxy)phenoxy]propionic acid methyl ester, to be utilized in a series of tests, is dissolved in acetone to one half of the final volume (twice the final concentration) to be used and the acetone solution in each case is admixed with an equal volume of water containing 0.1 percent by weight of Tween-20 surface active material (Tween-20 is a trademark of Atlas Chemical Company). The composition, generally in the nature of an emulsion, was employed to treat separate respective seed beds of sandy loam soil of good nutrient content wherein each seed bed contained separate groups of good viable seeds, each group being of one of a known plant species. The various beds were positioned side by side and exposed to substantially identical conditions of temperature and light. Each bed was maintained so as to prevent any interaction with the test compound in different seed beds. Each seed bed was treated with the composition as a spray employing conventional spraying equipment to deposit a predetermined amount of the compound uniformly throughout the surface of the bed. Another seed bed was treated only with the acetone-Tween-20 water mixture with no chemical added to serve as a control.

Yellow Foxtail [1] = assay: Preemergent activity; conditions: Setaria, pre-emergence, read-out: Preemergence Control; for pest or weed control at 70 g/ha: 0.07 kgs/hectare; for pest or weed control at 140 g/ha: 0.14 kgs/hectare; for pest or weed control at 280 g/ha: 0.28 kgs/hectare; for pest or weed control at 560 g/ha: 0.56 kgs/hectare; for pest or weed control at 1120 g/ha: 1.12 kgs/hectare
Method: as §1

Wheat [2] = assay: Preemergent activity; conditions: Triticum aestivum, pre-emergence, read-out: Preemergence Control; for plant injury at 70 g/ha: 0.07 kgs/hectare; for plant injury at 140 g/ha: 0.14 kgs/hectare; for plant injury at 280 g/ha: 0.28 kgs/hectare; for plant injury at 560 g/ha: 0.56 kgs/hectare; for plant injury at 1120 g/ha: 1.12 kgs/hectare
Method: as §1

Barnyard Grass = assay: Preemergent activity; conditions: Echinochloa crus-galli, pre-emergence, read-out: Preemergence Control; for pest or weed control at 70 g/ha: 0.07 kgs/hectare; for pest or weed control at 140 g/ha: 0.14 kgs/hectare; for pest or weed control at 280 g/ha: 0.28 kgs/hectare; for pest or weed control at 560 g/ha: 0.56 kgs/hectare; for pest or weed control at 1120 g/ha: 1.12 kgs/hectare
Method: as §1

Wild Oats [3] = assay: Preemergent activity; conditions: Avena fatua, pre-emergence, read-out: Preemergence Control; for pest or weed control at 70 g/ha: 0.07 kgs/hectare; for pest or weed control at 140 g/ha: 0.14 kgs/hectare; for pest or weed control at 280 g/ha: 0.28 kgs/hectare; for pest or weed control at 560 g/ha: 0.56 kgs/hectare; for pest or weed control at 1120 g/ha: 1.12 kgs/hectare
Method: as §1

Johnson Grass = assay: Preemergent activity; conditions: Sorghum halepense, pre-emergence, read-out: Preemergence Control; for pest or weed control at 70 g/ha: 0.07 kgs/hectare; for pest or weed control at 140 g/ha: 0.14 kgs/hectare; for pest or weed control at 280 g/ha: 0.28 kgs/hectare; for pest or weed control at 560 g/ha: 0.56 kgs/hectare; for pest or weed control at 1120 g/ha: 1.12 kgs/hectare
Method: as §1

Wheat [4] = assay: Postemergent activity; conditions: Triticum aestivum, post-emergence, 336 h, read-out: % Control
Method: (§2) Representative compositions of the present invention were evaluated for the postemergence control of species of plants listed in Table A. In these evaluations, pots of the plant species listed in Table A, grown to a height of about 10 cms, were used. Aqueous spray compositions, containing various amounts of 2-[4-(2-fluoro-4-trifluoromethylphenoxy)-phenoxy]propionic acid methy ester, i.e., 125 ppm, 62.5 ppm, 31.25 ppm, 15.6 ppm, 7.8 ppm and 3.9 ppm, respectively, were applied to separate pots. The spray compositions were made by mixing the active ingredient in acetone to 1/2 the final volume, i.e., twice the final concentration. An equal amount of water was added to the active ingredient/acetone mixture wherein the water contained 0.1 percent by weight of TWEEN® 200 surfactant. The application to the plants was made to the point of run-off and was carried out with conventional spraying equipment. Other pots were sprayed with similar compositions containing no toxicant to serve as controls. Thereafter, the pots were maintained under conditions conducive for plant growth. Two weeks after treatment, the pots were examined for plant growth and evaluated on a scale of 0 to 100 where 0 represents no effect and 100 represents complete kill. The results of the examination of the treated pots are set forth below in Table A.
(§3) Substantially the same procedures as those described in Example A were repeated except that the active ingredients were 2-[4-(4-chloro-2-fluorophenoxy)phenoxy]propionic acid; methyl ester and its R-enantiomer and 2-(4-(4-bromo-2-fluorophenoxy)phenoxy propionic acid; methyl ester and its R enantiomer. The results are listed below in Table B.
(§4) In further operations employing the above general procedures and the indicated test compounds the following results were obtained: […]

Wild Oats [5] = assay: Postemergent activity; conditions: Avena fatua, post-emergence, 336 h, read-out: % Control
Method: as §2, §3, §4

Cheatgrass = assay: Postemergent activity
Method: (§5) Representative compositions of the present invention were evaluated for the postemergence control of species of plants listed in Table A. In these evaluations, pots of the plant species listed in Table A, grown to a height of about 10 cms, were used. […] The spray compositions were made by mixing the active ingredient in acetone to 1/2 the final volume, i.e., twice the final concentration. An equal amount of water was added to the active ingredient/acetone mixture wherein the water contained 0.1 percent by weight of TWEEN® 200 surfactant. The application to the plants was made to the point of run-off and was carried out with conventional spraying equipment. […] Thereafter, the pots were maintained under conditions conducive for plant growth.

Yellow Foxtail [6] = assay: Postemergent activity
Method: as §5

Barley = assay: Postemergent activity
Method: as §5

Green Foxtail = assay: Postemergent activity
Method: as §5

Blackgrass = assay: Postemergent activity
Method: as §5

COC(=O)[C@@H](C)Oc1ccc(Oc2ccc(Cl)cc2F)cc1 [4-Chloro-(R-Enantiomer), R enantiomer of 2-[4-(4-chloro-2-fluorophenoxy)phenoxy]propionic acid methyl ester]
90%: % Control (Blackgrass; 3.2 ppm)
40%: pest or weed control at 7.8 ppm (Wild Oats [5]) | % Control (Yellow Foxtail [6]; 3.2 ppm) | % Control (Barley; 125 ppm) | % Control (Blackgrass; 0.8 ppm)
80%: pest or weed control at 1120 g/ha (Wild Oats [3]) | pest or weed control at 280 g/ha (Johnson Grass) | pest or weed control at 15.6 ppm (Wild Oats [5]) | % Control (Green Foxtail; 0.8 ppm) | % Control (Blackgrass; 1.6 ppm)
0%: pest or weed control at 70 g/ha (Yellow Foxtail [1]) | pest or weed control at 140 g/ha (Yellow Foxtail [1]) | plant injury at 70 g/ha (Wheat [2]) | plant injury at 140 g/ha (Wheat [2]) | plant injury at 280 g/ha (Wheat [2]) | pest or weed control at 70 g/ha (Barnyard Grass) | pest or weed control at 70 g/ha (Wild Oats [3]) | pest or weed control at 140 g/ha (Wild Oats [3]) | pest or weed control at 280 g/ha (Wild Oats [3]) | pest or weed control at 70 g/ha (Johnson Grass) | pest or weed control at 140 g/ha (Johnson Grass) | plant injury at 7.8 ppm (Wheat [4]) | plant injury at 15.6 ppm (Wheat [4]) | plant injury at 31.25 ppm (Wheat [4]) | % Control (Cheatgrass; 0.4 ppm) | % Control (Cheatgrass; 0.8 ppm) | % Control (Cheatgrass; 1.6 ppm) | % Control (Cheatgrass; 3.2 ppm) | % Control (Cheatgrass; 6.3 ppm) | % Control (Cheatgrass; 12.5 ppm) | % Control (Cheatgrass; 25 ppm) | % Control (Yellow Foxtail [6]; 0.4 ppm) | % Control (Yellow Foxtail [6]; 0.8 ppm) | % Control (Yellow Foxtail [6]; 1.6 ppm) | % Control (Barley; 7.8 ppm) | % Control (Barley; 15.6 ppm) | % Control (Barley; 31.25 ppm) | % Control (Barley; 62.5 ppm) | % Control (Green Foxtail; 0.4 ppm) | % Control (Blackgrass; 0.4 ppm)
60%: pest or weed control at 560 g/ha (Wild Oats [3]) | plant injury at 125 ppm (Wheat [4]) | % Control (Yellow Foxtail [6]; 6.3 ppm)
98%: Preemergence Control (Crabgrass; 0.14 kgs/hectare) | pest or weed control at 1120 g/ha (Yellow Foxtail [1]) | pest or weed control at 280 g/ha (Barnyard Grass) | pest or weed control at 1120 g/ha (Johnson Grass)
100%: Preemergence Control (Crabgrass; 0.28 kgs/hectare) | Preemergence Control (Crabgrass; 0.56 kgs/hectare) | Preemergence Control (Crabgrass; 1.12 kgs/hectare) | pest or weed control at 560 g/ha (Barnyard Grass) | pest or weed control at 1120 g/ha (Barnyard Grass) | pest or weed control at 31.25 ppm (Wild Oats [5]) | pest or weed control at 62.5 ppm (Wild Oats [5]) | pest or weed control at 125 ppm (Wild Oats [5]) | % Control (Yellow Foxtail [6]; 12.5 ppm) | % Control (Yellow Foxtail [6]; 25 ppm) | % Control (Green Foxtail; 1.6 ppm) | % Control (Green Foxtail; 3.2 ppm) | % Control (Green Foxtail; 6.3 ppm) | % Control (Green Foxtail; 12.5 ppm) | % Control (Green Foxtail; 25 ppm) | % Control (Blackgrass; 12.5 ppm) | % Control (Blackgrass; 25 ppm)
95%: pest or weed control at 560 g/ha (Yellow Foxtail [1]) | pest or weed control at 560 g/ha (Johnson Grass) | % Control (Blackgrass; 6.3 ppm)
70%: Preemergence Control (Crabgrass; 0.07 kgs/hectare) | plant injury at 62.5 ppm (Wheat [4])
30%: pest or weed control at 280 g/ha (Yellow Foxtail [1])
20%: plant injury at 1120 g/ha (Wheat [2])
10%: plant injury at 560 g/ha (Wheat [2]) | pest or weed control at 140 g/ha (Barnyard Grass)

CC(Oc1ccc(Oc2ccc(Br)cc2F)cc1)C(=O)O (centres unmarked) [OH, 2-(4-(4-Bromo-2-fluorophenoxy)phenoxy)propionic acid]
95%: pest or weed control at 140 g/ha (Barnyard Grass) | pest or weed control at 560 g/ha (Wild Oats [3])
80%: pest or weed control at 280 g/ha (Johnson Grass)
60%: pest or weed control at 140 g/ha (Johnson Grass)
100%: pest or weed control at 560 g/ha (Yellow Foxtail [1]) | pest or weed control at 1120 g/ha (Yellow Foxtail [1]) | pest or weed control at 280 g/ha (Barnyard Grass) | pest or weed control at 560 g/ha (Barnyard Grass) | pest or weed control at 1120 g/ha (Barnyard Grass) | pest or weed control at 140 g/ha (Wild Oats [3]) | pest or weed control at 1120 g/ha (Wild Oats [3]) | pest or weed control at 560 g/ha (Johnson Grass) | pest or weed control at 1120 g/ha (Johnson Grass)
50%: pest or weed control at 70 g/ha (Barnyard Grass)
0%: pest or weed control at 70 g/ha (Yellow Foxtail [1]) | pest or weed control at 140 g/ha (Yellow Foxtail [1]) | plant injury at 70 g/ha (Wheat [2]) | plant injury at 140 g/ha (Wheat [2]) | plant injury at 280 g/ha (Wheat [2]) | plant injury at 560 g/ha (Wheat [2]) | pest or weed control at 70 g/ha (Wild Oats [3]) | pest or weed control at 70 g/ha (Johnson Grass)
90%: pest or weed control at 280 g/ha (Yellow Foxtail [1]) | pest or weed control at 280 g/ha (Wild Oats [3])
30%: plant injury at 1120 g/ha (Wheat [2])
